Common to all, as to experiment: NCI-60 cell line screen, 48 h
Assay [1] relates to CAKI-1 renal.
In assay [2] the test system is LOX IMVI melanoma.
Assay [3] concerns MOLT-4 leukemia.
Assay [4] concerns NCI-H23 lung.
Assay [5] has as its system NCI-H460 lung.
Assay [6] concerns OVCAR-4 ovarian.
Assay [7] deals with SK-MEL-5 melanoma.
Assay [8] deals with U251 CNS.
For assay [9], the system named is CCRF-CEM leukemia.
In assay [10] the test system is SF-539 CNS.

Several values for one entry are separate records, joined by “and”; a condition that tells them apart may be missing. Equal entries are not always repeated.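 1) Cells in 96-well plates. 2) Compound, 48 h, 5 concentrations. 3) Linear interpolation between surrounding doses. 4) Unreached endpoint = highest concentration. At the GI50, growth is halved. TGI marks complete inhibition of growth.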

The values below come from PubChem BioAssay (NCI).

On to `O=C([CH-]C(=O)c1ccccc1)c1ccccc1.O=C([CH-]C(=O)c1ccccc1)c1ccccc1.O=C([CH-]C(=O)c1ccccc1)c1ccccc1.[Cl-].[Zr+4]`, for which the GI50 is 12.4 µM in assay [1]; 26.7 µM in [2]; 9.75 µM in [3]; 16.9 µM in assay [4]; 10.8 µM in assay [5]; 15.9 µM in assay [6]. Also, the GI50 was 22.9 µM in assay [7] and 12.1 µM in assay [8]. Also, the TGI in assay [1] was 63.8 µM; in assay [2], greater than 100 µM; in assay [3] it was greater than 100 µM; in assay [4], 99.7 µM; in assay [5] it was 53.8 µM; in assay [6], 88.4 µM. Besides, the TGI was 60.6 µM in [7] and greater than 100 µM in assay [8].

Take `CCOC(=O)C#Cc1c(C(=O)OCC)nnn1[C@@H]1O[C@H](CO)[C@H]2OC3(CCCCC3)O[C@H]21`: the GI50 in [1] is 1.76 µM; in assay [9], 1.62 µM; in assay [2] it was 1.31 µM; in [3], 1.95 µM; in assay [4], 10.1 µM; in assay [5], 13.4 µM. In addition, the GI50 was 2.04 µM in assay [6], 13.7 µM in assay [7] and 11.2 µM in assay [8]. The TGI in assay [1] amounted to 3.31 µM; in assay [9], 4.85 µM; in [2], 2.83 µM; in assay [3] it was 5.42 µM; in assay [4], 28.4 µM; in assay [5], 28.9 µM. The TGI is 4.48 µM in assay [6], 26.6 µM in [7] and 23.2 µM in assay [8].

As for `COc1cc(NC(C)CCCNC(C)C)c2ncccc2c1OC` (stereo unspecified), the GI50 was greater than 100 µM in assay [1]; greater than 100 µM in assay [2]; greater than 100 µM in assay [3]; greater than 100 µM in [4]; 34.1 µM in assay [5]; 4.2 µM in assay [6]. Further, the GI50 in [10], in [7] and in [8] was greater than 100 µM each time. Besides, the TGI is greater than 100 µM in assay [1]; greater than 100 µM in assay [2]; greater than 100 µM in [3]; greater than 100 µM in [4]; greater than 100 µM in [5]; 53.3 µM in assay [6]. Moreover, the TGI in [10], in [7] and in assay [8] was greater than 100 µM in each case.

Consider `CCC[CH2][Sn]([CH2]CCC)([CH2]CCC)[O]C(=O)C(OC)c1ccccc1` (stereo unspecified), for which the GI50 in assay [1] was 0.115 µM; in assay [2] it was 0.0309 µM; in assay [4], 0.0499 µM; in assay [5], 0.0835 µM; in assay [6], 0.0604 µM; in assay [10], 0.134 µM. The figures for the GI50 in [7] and in assay [8] were 0.133 µM and 0.106 µM, respectively. The TGI worked out at 0.238 µM in assay [1]; 0.13 µM in [2]; 0.835 µM in assay [3]; 0.179 µM in assay [4]; 0.217 µM in assay [5]; 0.189 µM in assay [6]. For the same molecule, the TGI stood at 0.268 µM in assay [10], 0.262 µM in assay [7] and 0.225 µM in assay [8].

Take `COc1ccc(-c2nc(N)c(C#N)c3c2CCOc2c-3ccc3ccccc23)cc1`: the GI50 in assay [1] was 3.32 µM; in [9], greater than 100 µM; in [3], greater than 100 µM; in assay [4] it was 19.4 µM; in assay [5], 16.3 µM; in assay [6] it was 1.43 µM. The GI50 in [10] is 21.2 µM; in assay [8], 14 µM. The TGI in [1] was 19.6 µM; in assay [9], greater than 100 µM; in assay [3] it was greater than 100 µM; in assay [4], 61.9 µM; in assay [5], greater than 100 µM; in assay [6], 9.38 µM. The TGI in assay [10] was 52.6 µM; in assay [8], 34.4 µM.

As to `COC(=O)CC(C(C(C)=O)C(=O)OCc1ccccc1)N1C(=O)OC(c2ccccc2)C1c1ccccc1` (stereo unspecified), the TGI in assay [1], in assay [9], in [2], in assay [3], in assay [4] and in assay [5] was greater than 100 µM each time. The TGI in [10], in assay [7] and in [8] was greater than 100 µM throughout. For the same molecule, the GI50 in [10] is 24.1 µM and > 100 µM.

Consider `c1ccc(C2CC(c3ccc4ccccc4c3)=Nc3ccccc3S2)cc1` (stereo unspecified), for which the TGI in [9] is 99.7 µM; in assay [2] it was 29.5 µM; in assay [3] it was greater than 100 µM; in assay [4] it was 28.9 µM; in [5], 29.1 µM; in assay [6] it was 37.5 µM. The TGI in assay [10] was determined as 31.5 µM; in [7], 35.3 µM; in assay [8], 31 µM.

With `CC(C)(C)c1nc(-c2cccc(NS(=O)(=O)c3c(F)cccc3F)c2F)c(-c2ccnc(N)n2)s1`, the GI50 in [9] was 21.7 µM; in assay [2], 0.233 µM; in assay [3], 26.5 µM; in [4] it was 10.3 µM; in assay [5] it was 30.4 µM; in assay [6], 50.5 µM. Further, the GI50 is 39.2 µM in assay [10], 0.0129 µM in [7] and 45.5 µM in assay [8]. In addition, the TGI is greater than 86.2 µM in [9]; greater than 100 µM in assay [2]; greater than 100 µM in assay [3]; 98.6 µM in [4]; greater than 100 µM in assay [5]; greater than 100 µM in assay [6]. The TGI in [10], in assay [7] and in assay [8] was greater than 100 µM each time.

Regarding `C=C(CO)CC(/C=C(\C)CC/C=C(\C)CCl)OC(C)=O` (stereo unspecified), the TGI in assay [9], in assay [2], in [3], in assay [4], in assay [5] and in assay [6] was greater than 100 µM in each case. For the same molecule, the TGI in assay [10], in [7] and in [8] was greater than 100 µM each time.
